Results published in article PMC6891286, “Towards the Development of an In vivo Chemical Probe for Cyclin G Associated Kinase (GAK)” (Molecules, 2019).

Assays:
Experiment in all cases: KINOMEscan
Format in all cases: binding
Settings in all cases: 35 at 1 µM; read-out: % inhibition
FGFR3(G697C) = target: T1, FGFR3(G697C) (Homo sapiens, UniProt P22607, G697C)
T1 construct: purchased Eurofins DiscoverX (KINOMEscan)
Procedure: (§1) KinomeScan Assay on 35 was performed as previously described at EuroFins DiscoverX (Fremont, CA, USA).

CAMK2G = target: T2, CAMK2G (Homo sapiens, UniProt Q13555)
T2 construct: purchased Eurofins DiscoverX (KINOMEscan)
Procedure: as §1

MYLK4 = target: T3, MYLK4 (Homo sapiens, UniProt Q86YV6)
T3 construct: purchased Eurofins DiscoverX (KINOMEscan)
Procedure: as §1

CIT = target: T4, CIT (Homo sapiens, UniProt O14578)
T4 construct: purchased Eurofins DiscoverX (KINOMEscan)
Procedure: as §1

PIP5K2B = target: T5, PIP5K2B (Homo sapiens, UniProt P78356)
T5 construct: purchased Eurofins DiscoverX (KINOMEscan)
Procedure: as §1

HIPK1 = target: T6, HIPK1 (Homo sapiens, UniProt Q86Z02)
T6 construct: purchased Eurofins DiscoverX (KINOMEscan)
Procedure: as §1

WNK2 = target: T7, WNK2 (Homo sapiens, UniProt Q9Y3S1)
T7 construct: purchased EuroFins DiscoverX (Fremont, CA, USA)
Procedure: as §1

PIM2 = target: T8, PIM2 (Homo sapiens, UniProt Q9P1W9)
T8 construct: purchased Eurofins DiscoverX (KINOMEscan)
Procedure: as §1

NLK = target: T9, NLK (Homo sapiens, UniProt Q9UBE8)
T9 construct: purchased Eurofins DiscoverX (KINOMEscan)
Procedure: as §1

PKN1 = target: T10, PKN1 (Homo sapiens, UniProt Q16512)
T10 construct: purchased Eurofins DiscoverX (KINOMEscan)
Procedure: as §1

BMPR2 = target: T11, BMPR2 (Homo sapiens, UniProt Q13873)
T11 construct: purchased Eurofins DiscoverX (KINOMEscan)
Procedure: as §1

DAPK2 = target: T12, DAPK2 (Homo sapiens, UniProt Q9UIK4)
T12 construct: purchased Eurofins DiscoverX (KINOMEscan)
Procedure: as §1

MAK = target: T13, MAK (Homo sapiens, UniProt P20794)
T13 construct: purchased Eurofins DiscoverX (KINOMEscan)
Procedure: as §1

NEK9 = target: T14, NEK9 (Homo sapiens, UniProt Q8TD19)
T14 construct: purchased Eurofins DiscoverX (KINOMEscan)
Procedure: as §1

[1] = target: T15, ABL1(H396P)-nonphosphorylated (Homo sapiens, UniProt P00519, H396P)
T15 construct: purchased Eurofins DiscoverX (KINOMEscan)
Procedure: as §1

CDK4 = target: T16, CDK4 (Homo sapiens, UniProt P11802)
T16 construct: purchased Eurofins DiscoverX (KINOMEscan)
Procedure: as §1

LOK = target: T17, LOK (Homo sapiens, UniProt O94804)
T17 construct: purchased Eurofins DiscoverX (KINOMEscan)
Procedure: as §1

CAMK2B = target: T18, CAMK2B (Homo sapiens, UniProt Q13554)
T18 construct: purchased Eurofins DiscoverX (KINOMEscan)
Procedure: as §1

NEK11 = target: T19, NEK11 (Homo sapiens, UniProt Q8NG66)
T19 construct: purchased Eurofins DiscoverX (KINOMEscan)
Procedure: as §1

LYN = target: T20, LYN (Homo sapiens, UniProt P07948)
T20 construct: purchased Eurofins DiscoverX (KINOMEscan)
Procedure: as §1

CHEK1 = target: T21, CHEK1 (Homo sapiens, UniProt O14757)
T21 construct: purchased Eurofins DiscoverX (KINOMEscan)
Procedure: as §1

PYK2 = target: T22, PYK2 (Homo sapiens, UniProt Q14289)
T22 construct: purchased Eurofins DiscoverX (KINOMEscan)
Procedure: as §1

PRKCI = target: T23, PRKCI (Homo sapiens, UniProt P41743)
T23 construct: purchased Eurofins DiscoverX (KINOMEscan)
Procedure: as §1

NEK5 = target: T24, NEK5 (Homo sapiens, UniProt Q6P3R8)
T24 construct: purchased Eurofins DiscoverX (KINOMEscan)
Procedure: as §1

EPHA8 = target: T25, EPHA8 (Homo sapiens, UniProt P29322)
T25 construct: purchased Eurofins DiscoverX (KINOMEscan)
Procedure: as §1

EGFR(G719S) = target: T26, EGFR(G719S) (Homo sapiens, UniProt P00533, G719S)
T26 construct: purchased Eurofins DiscoverX (KINOMEscan)
Procedure: as §1

PLK2 = target: T27, PLK2 (Homo sapiens, UniProt Q9NYY3)
T27 construct: purchased Eurofins DiscoverX (KINOMEscan)
Procedure: as §1

EGFR = target: T28, EGFR (Homo sapiens, UniProt P00533)
T28 construct: purchased Eurofins DiscoverX (KINOMEscan)
Procedure: as §1

AMPK-alpha2 = target: T29, AMPK-alpha2 (Homo sapiens, UniProt P54646)
T29 construct: purchased Eurofins DiscoverX (KINOMEscan)
Procedure: as §1

[2] = target: T30, RSK2(Kin.Dom.1-N-terminal) (Homo sapiens, UniProt P51812)
T30 construct: RSK2(Kin.Dom.1-N-terminal); purchased Eurofins DiscoverX (KINOMEscan)
Procedure: as §1

MLK1 = target: T31, MLK1 (Homo sapiens, UniProt P80192)
T31 construct: purchased Eurofins DiscoverX (KINOMEscan)
Procedure: as §1

TLK1 = target: T32, TLK1 (Homo sapiens, UniProt Q9UKI8)
T32 construct: purchased Eurofins DiscoverX (KINOMEscan)
Procedure: as §1

CDKL3 = target: T33, CDKL3 (Homo sapiens, UniProt Q8IVW4)
T33 construct: purchased Eurofins DiscoverX (KINOMEscan)
Procedure: as §1

[3] = target: T34, ABL1(M351T)-phosphorylated (Homo sapiens, UniProt P00519, M351T)
T34 construct: purchased Eurofins DiscoverX (KINOMEscan)
Procedure: as §1

T22 sequence (Q14289 whole entry): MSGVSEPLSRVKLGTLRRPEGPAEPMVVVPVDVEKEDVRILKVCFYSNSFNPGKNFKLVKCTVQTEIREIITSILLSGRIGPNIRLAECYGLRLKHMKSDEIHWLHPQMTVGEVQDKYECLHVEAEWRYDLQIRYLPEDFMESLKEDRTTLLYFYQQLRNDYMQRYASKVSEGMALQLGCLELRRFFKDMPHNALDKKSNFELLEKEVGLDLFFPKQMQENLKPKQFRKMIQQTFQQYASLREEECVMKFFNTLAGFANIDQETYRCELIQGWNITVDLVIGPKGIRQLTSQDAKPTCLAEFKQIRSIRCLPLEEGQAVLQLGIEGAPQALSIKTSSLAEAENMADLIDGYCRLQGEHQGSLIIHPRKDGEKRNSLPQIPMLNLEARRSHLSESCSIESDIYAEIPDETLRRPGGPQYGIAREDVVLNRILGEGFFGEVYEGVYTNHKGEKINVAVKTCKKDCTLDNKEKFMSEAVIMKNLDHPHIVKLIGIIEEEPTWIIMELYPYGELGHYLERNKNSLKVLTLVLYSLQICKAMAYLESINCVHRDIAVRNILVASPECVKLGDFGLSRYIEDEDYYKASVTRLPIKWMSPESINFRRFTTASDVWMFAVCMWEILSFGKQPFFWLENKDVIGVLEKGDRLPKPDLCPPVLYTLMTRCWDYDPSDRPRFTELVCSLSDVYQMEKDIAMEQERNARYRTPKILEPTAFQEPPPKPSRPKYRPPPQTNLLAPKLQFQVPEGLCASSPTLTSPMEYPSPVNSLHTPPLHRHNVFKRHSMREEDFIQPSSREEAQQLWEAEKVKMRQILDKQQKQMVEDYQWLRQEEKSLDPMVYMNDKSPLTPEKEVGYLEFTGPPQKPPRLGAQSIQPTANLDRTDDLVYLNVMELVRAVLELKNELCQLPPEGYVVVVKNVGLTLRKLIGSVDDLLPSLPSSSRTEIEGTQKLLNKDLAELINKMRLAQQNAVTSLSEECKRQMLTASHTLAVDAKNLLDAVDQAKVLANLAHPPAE
T9 sequence (Q9UBE8 whole entry): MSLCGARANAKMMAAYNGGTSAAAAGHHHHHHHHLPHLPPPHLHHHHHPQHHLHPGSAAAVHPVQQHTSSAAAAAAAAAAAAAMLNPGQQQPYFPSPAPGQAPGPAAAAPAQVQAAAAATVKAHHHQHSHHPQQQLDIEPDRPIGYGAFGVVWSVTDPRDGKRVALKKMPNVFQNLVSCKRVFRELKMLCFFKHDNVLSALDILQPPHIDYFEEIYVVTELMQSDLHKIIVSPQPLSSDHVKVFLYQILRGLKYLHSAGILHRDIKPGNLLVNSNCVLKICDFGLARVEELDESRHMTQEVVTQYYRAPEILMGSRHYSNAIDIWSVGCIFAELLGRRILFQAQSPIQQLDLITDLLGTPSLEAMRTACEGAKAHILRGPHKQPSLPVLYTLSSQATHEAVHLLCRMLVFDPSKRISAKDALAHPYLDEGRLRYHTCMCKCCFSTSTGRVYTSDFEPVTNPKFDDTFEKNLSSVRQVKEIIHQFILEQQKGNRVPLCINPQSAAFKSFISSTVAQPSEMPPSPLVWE
T21 sequence (O14757 whole entry): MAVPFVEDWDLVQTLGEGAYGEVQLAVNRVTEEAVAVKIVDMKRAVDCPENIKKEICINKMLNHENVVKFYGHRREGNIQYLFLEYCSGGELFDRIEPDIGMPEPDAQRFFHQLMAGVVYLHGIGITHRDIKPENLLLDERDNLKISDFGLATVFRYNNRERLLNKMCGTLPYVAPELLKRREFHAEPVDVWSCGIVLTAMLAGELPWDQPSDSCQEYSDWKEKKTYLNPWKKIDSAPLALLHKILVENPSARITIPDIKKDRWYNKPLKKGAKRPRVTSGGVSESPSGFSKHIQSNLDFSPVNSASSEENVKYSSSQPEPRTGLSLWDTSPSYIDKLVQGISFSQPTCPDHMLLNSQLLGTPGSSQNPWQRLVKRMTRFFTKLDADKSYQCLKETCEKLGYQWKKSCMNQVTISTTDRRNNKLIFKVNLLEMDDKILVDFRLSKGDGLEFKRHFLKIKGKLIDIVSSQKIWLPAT
T25 sequence (P29322 28-1005): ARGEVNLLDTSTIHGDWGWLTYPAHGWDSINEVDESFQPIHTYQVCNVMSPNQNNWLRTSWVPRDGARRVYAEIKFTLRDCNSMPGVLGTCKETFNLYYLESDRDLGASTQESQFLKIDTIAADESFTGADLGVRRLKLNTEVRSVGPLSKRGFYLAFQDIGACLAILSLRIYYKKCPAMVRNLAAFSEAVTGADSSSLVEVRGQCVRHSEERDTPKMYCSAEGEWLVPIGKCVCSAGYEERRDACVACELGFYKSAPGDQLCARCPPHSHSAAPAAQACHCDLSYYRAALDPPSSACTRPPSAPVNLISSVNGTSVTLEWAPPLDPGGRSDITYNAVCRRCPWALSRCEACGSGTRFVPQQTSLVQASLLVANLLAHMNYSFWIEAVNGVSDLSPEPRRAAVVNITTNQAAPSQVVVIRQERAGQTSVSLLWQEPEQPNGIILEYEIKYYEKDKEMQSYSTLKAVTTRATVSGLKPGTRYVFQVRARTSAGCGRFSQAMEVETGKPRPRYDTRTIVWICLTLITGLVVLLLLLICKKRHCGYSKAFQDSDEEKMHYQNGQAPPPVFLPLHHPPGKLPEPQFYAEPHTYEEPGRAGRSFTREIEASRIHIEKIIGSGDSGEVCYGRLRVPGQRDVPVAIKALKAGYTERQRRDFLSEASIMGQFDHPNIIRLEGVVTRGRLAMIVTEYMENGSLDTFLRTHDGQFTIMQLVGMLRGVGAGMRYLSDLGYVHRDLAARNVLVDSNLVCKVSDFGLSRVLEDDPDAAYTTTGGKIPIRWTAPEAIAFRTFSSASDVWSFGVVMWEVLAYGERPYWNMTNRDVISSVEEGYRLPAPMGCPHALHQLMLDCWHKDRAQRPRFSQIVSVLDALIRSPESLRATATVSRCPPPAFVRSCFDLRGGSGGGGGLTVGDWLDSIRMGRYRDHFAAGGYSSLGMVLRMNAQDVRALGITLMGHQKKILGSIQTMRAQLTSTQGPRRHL
T6 sequence (Q86Z02 whole entry): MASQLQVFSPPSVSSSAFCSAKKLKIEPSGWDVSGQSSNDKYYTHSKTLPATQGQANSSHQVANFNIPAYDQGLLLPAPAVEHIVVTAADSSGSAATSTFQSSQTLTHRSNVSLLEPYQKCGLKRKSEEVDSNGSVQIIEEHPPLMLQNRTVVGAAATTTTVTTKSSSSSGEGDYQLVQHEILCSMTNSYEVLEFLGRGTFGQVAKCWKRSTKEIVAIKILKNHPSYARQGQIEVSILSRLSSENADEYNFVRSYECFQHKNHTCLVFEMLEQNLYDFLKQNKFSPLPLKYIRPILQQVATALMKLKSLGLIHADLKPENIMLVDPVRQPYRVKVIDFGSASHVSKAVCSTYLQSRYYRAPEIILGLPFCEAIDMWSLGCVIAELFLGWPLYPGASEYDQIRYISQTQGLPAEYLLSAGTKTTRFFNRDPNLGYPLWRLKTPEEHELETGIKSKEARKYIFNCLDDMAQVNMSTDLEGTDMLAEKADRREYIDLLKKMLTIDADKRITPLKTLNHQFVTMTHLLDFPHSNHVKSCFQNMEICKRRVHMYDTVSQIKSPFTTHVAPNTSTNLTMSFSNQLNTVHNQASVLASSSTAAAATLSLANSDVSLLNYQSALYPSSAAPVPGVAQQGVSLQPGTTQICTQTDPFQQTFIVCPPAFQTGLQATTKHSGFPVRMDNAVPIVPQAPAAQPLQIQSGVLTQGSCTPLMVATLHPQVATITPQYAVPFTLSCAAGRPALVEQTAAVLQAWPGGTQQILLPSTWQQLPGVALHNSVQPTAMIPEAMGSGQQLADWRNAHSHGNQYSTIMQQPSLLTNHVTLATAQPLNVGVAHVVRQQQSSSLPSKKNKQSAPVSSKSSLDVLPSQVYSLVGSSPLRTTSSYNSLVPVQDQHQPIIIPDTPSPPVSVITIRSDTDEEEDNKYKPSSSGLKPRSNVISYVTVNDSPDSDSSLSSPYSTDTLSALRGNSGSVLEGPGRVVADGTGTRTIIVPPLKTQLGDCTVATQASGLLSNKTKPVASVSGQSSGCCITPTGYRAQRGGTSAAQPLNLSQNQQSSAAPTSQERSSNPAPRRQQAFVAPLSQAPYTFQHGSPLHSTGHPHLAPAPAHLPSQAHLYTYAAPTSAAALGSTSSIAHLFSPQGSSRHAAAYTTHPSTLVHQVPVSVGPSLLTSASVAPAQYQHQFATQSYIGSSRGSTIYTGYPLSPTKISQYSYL
T18 sequence (Q13554 whole entry): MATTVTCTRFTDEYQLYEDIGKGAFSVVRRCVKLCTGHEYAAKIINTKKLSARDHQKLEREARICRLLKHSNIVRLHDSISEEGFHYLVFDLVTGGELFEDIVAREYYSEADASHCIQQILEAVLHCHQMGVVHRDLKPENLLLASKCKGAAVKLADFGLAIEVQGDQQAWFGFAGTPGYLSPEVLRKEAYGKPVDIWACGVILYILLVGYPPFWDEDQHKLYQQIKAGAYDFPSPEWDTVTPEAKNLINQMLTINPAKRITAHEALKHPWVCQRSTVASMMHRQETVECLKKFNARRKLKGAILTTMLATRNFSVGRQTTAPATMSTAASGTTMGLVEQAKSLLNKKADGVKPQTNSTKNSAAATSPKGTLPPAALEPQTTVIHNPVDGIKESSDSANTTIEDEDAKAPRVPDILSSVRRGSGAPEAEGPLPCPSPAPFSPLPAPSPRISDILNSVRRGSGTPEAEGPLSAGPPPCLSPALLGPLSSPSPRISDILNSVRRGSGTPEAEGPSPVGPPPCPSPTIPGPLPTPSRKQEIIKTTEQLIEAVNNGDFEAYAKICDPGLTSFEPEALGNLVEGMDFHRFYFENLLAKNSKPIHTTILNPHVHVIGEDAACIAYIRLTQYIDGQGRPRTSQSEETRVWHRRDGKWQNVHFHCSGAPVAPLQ

Structure (SMILES): Brc1ccc2nccc(Nc3ccc4cn[nH]c4c3)c2c1 [Compound 35, 6-Bromo-N-(1H-indazol-6-yl)quinolin-4-amine]
- activity at 1 µM (FGFR3(G697C)): 100%
- activity at 1 µM (CAMK2G): 100%
- activity at 1 µM (MYLK4): 100%
- activity at 1 µM (CIT): 86%
- activity at 1 µM (PIP5K2B): 100%
- activity at 1 µM (HIPK1): 53%
- activity at 1 µM (WNK2): 100%
- activity at 1 µM (PIM2): 100%
- activity at 1 µM (NLK): 100%
- activity at 1 µM (PKN1): 100%
- activity at 1 µM (BMPR2): 100%
- activity at 1 µM (DAPK2): 100%
- activity at 1 µM (MAK): 100%
- activity at 1 µM (NEK9): 100%
- activity at 1 µM [1]: 86%
- activity at 1 µM (CDK4): 78%
- activity at 1 µM (LOK): 100%
- activity at 1 µM (CAMK2B): 100%
- activity at 1 µM (NEK11): 100%
- activity at 1 µM (LYN): 100%
- activity at 1 µM (CHEK1): 100%
- activity at 1 µM (PYK2): 100%
- activity at 1 µM (PRKCI): 60%
- activity at 1 µM (NEK5): 93%
- activity at 1 µM (EPHA8): 100%
- activity at 1 µM (EGFR(G719S)): 97%
- activity at 1 µM (PLK2): 100%
- activity at 1 µM (EGFR): 100%
- activity at 1 µM (AMPK-alpha2): 100%
- activity at 1 µM [2]: 90%
- activity at 1 µM (MLK1): 100%
- activity at 1 µM (TLK1): 95%
- activity at 1 µM (CDKL3): 100%
- activity at 1 µM [3]: 100%
